The source made the active and inactive calls. The calls are words filed in the database; no cut-off is given here.
Legend:
[1] = target: DNA topoisomerase 2-alpha (Homo sapiens) (UniProt P11388); assay: Inhibition of human topoisomerase-2 alpha assessed as Escherichia coli pBR322 DNA cleavage at 100 uM after 30 mins by agarose electrophoresis
[2] = Selectivity ratio of IC50 for rat L6 cells to IC50 for human A549 cells; assay type: ADME, cell-based; details: L6 cells and A549 cells, read-out: Ratio IC50
[3] = tested on: L6; assay: Cytotoxicity against rat L6 cells after 71.5 hrs by Presto Blue assay; assay type: cell-based; details: L6, 71.5 h
[4] = tested on: A549; assay: Cytotoxicity against human A549 cells after 48 hrs by Alamar Blue assay; assay type: functional, cell-based; details: A549, 48 h

Chain of DNA topoisomerase 2-alpha (Homo sapiens) (P11388 whole entry): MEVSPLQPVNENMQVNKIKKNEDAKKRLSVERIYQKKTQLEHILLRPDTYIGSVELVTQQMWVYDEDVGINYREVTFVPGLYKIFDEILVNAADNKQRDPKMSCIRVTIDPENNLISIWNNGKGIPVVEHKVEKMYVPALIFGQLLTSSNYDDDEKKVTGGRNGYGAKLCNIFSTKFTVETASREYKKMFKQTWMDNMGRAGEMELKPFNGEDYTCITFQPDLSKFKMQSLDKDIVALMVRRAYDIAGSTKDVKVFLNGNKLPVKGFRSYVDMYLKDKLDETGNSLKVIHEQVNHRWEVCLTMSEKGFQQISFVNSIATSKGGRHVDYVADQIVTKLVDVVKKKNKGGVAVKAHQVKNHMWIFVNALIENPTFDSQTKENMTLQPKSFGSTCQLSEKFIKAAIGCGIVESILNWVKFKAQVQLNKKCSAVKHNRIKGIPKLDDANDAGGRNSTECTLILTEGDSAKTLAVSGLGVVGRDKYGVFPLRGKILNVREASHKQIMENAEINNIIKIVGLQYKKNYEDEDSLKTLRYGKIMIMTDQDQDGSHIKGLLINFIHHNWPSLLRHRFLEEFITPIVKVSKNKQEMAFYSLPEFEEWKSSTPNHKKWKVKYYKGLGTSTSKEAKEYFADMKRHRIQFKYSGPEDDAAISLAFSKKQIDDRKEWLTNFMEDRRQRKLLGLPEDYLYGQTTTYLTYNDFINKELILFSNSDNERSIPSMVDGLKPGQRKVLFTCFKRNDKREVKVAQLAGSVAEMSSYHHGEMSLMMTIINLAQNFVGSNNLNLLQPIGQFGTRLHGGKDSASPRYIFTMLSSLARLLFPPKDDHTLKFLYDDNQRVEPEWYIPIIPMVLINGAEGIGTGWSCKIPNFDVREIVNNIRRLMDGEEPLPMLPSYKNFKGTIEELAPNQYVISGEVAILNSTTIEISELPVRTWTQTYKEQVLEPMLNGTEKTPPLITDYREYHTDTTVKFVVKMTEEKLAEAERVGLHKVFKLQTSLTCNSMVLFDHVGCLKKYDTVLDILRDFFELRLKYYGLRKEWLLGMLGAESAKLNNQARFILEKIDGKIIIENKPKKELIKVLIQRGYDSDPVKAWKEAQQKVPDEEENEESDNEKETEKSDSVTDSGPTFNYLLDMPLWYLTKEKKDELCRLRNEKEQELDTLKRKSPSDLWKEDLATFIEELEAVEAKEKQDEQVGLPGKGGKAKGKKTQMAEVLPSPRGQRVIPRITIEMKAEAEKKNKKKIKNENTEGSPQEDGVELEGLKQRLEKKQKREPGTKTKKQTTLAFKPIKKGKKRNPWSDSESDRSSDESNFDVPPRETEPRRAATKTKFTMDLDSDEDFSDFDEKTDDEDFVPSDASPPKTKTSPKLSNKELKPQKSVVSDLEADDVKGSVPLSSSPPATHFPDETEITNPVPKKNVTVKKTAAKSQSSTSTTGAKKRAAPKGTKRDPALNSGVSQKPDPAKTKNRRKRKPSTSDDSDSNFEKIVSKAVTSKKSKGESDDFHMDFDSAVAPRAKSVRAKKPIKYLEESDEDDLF

## COc1cc([C@@H]2c3cc4c(cc3[C@@H](OCc3ccccc3)[C@H]3COC(=O)[C@H]23)OCO4)cc(OC)c1O
[1]
  inhibition: Active
[2]
  selectivity ratio: 1.2
[3]
  IC50: 4.55 µM
[4]
  IC50: 3860 nM

## COc1cc([C@@H]2c3cc4c(cc3[C@@H](O[C@@H]3O[C@@H]5CO[C@@H](C)O[C@H]5[C@H](O)[C@H]3O)[C@H]3COC(=O)[C@H]23)OCO4)cc(OC)c1O [ETOPOSIDE]
[1]
  inhibition: Active
[2]
  selectivity ratio: 6.7
[3]
  IC50: 19 µM
[4]
  IC50: 2870 nM

## COc1cc([C@@H]2c3cc4c(cc3[C@@H](OCCCCCCO[C@@H]3c5cc6c(cc5[C@@H](c5cc(OC)c(O)c(OC)c5)[C@H]5C(=O)OC[C@@H]53)OCO6)[C@H]3COC(=O)[C@H]23)OCO4)cc(OC)c1O
[1]
  inhibition: Active
[2]
  selectivity ratio: 2.5
[3]
  IC50: 0.3 µM
[4]
  IC50: 120 nM

## COc1cc([C@@H]2c3cc4c(cc3[C@@H](OCCCCO[C@@H]3c5cc6c(cc5[C@@H](c5cc(OC)c(O)c(OC)c5)[C@H]5C(=O)OC[C@@H]53)OCO6)[C@H]3COC(=O)[C@H]23)OCO4)cc(OC)c1O
[1]
  inhibition: Active
[2]
  selectivity ratio: 4.3
[3]
  IC50: 0.3 µM
[4]
  IC50: 70 nM

## CCCCCCO[C@@H]1c2cc3c(cc2[C@@H](c2cc(OC)c(O)c(OC)c2)[C@H]2C(=O)OC[C@@H]21)OCO3
[1]
  inhibition: Active
[2]
  selectivity ratio: 0.76
[3]
  IC50: 4.55 µM
[4]
  IC50: 5970 nM

## COc1cc([C@@H]2c3cc4c(cc3[C@@H](OCc3ccc(CO[C@@H]5c6cc7c(cc6[C@@H](c6cc(OC)c(O)c(OC)c6)[C@H]6C(=O)OC[C@@H]65)OCO7)cc3)[C@H]3COC(=O)[C@H]23)OCO4)cc(OC)c1O
[1]
  inhibition: Active
[2]
  selectivity ratio: 1.7
[3]
  IC50: 0.6 µM
[4]
  IC50: 360 nM

## CCCCO[C@@H]1c2cc3c(cc2[C@@H](c2cc(OC)c(O)c(OC)c2)[C@H]2C(=O)OC[C@@H]21)OCO3
[1]
  inhibition: Active
[2]
  selectivity ratio: 1.6
[3]
  IC50: 4.62 µM
[4]
  IC50: 2870 nM

— ChEMBL document CHEMBL3352615, “Synthesis and evaluation of ether-linked demethylepipodophyllotoxin dimers” (Bioorg Med Chem Lett, 2014)
